# What was measured:
# [1] = test system: adriamycin-resistant MCF7/ADR subline; experiment: In vitro cytotoxicity MTS assay, adriamycin-resistant MCF7/ADR; type: cell-based, human; conditions: 72 hours
# Procedure: (§1) A panel of human cancer cells, gastric NUGC3 and HR, nasopharyngeal HONE1, hepatocellular HEP G2 and HA-22T, colorectal DLD1, lung A549, prostate PC3, breast MCF7 and its adriamycin-resistant MCF7/ADR subline, uterus MES-SA and its adriamycin-resistant MES-SA/Dx5 subline, is purchased from Food Industry Research and Development Institute, Hsinchu, Taiwan R.O.C. or American Type Culture Collection, Manassas, Va. U.S.A., are used in in vitro cytotoxicity assays. The human cells are seeded at a cell density of 3000 or 4500 cells/100 μl/well in 96-well flat-bottom plates and incubated for 24 hours at 37° C. in a 5% CO2 incubator. The testing compounds are dissolved in dimethyl sulfoxide (DMSO) and further diluted into the culture medium for treatments of human cancer cells in vitro. The drug-containing media has a final DMSO concentration of ≦0.3%. The compounds of this invention are prepared in culture media for testing at a range of concentrations from 10, 1, 0.1, 0.01 to 0.001 μM. Each compound solution is (200 μl/well in duplicate) in the cell plates and is treated for 72 hours at 37° C., 5% CO2 in an incubator. Actinomycin D at 5 μM and 0.3% DMSO are used as the positive and vehicle controls, respectively. A colorimetric assay using 3-(4,5-dimethylthiazol-2-yl)-5-(3-carboxymethoxyphenyl)-2-(4-sulfophenyl)-2H-tetrazolium (MTS) and phenazine methosulfate (PMS) is used to determine the potency of the compounds. This assay measures cell viability based on the cellular activity in conversion of a tetrazolium salt into a colored soluble formazan product. The optical density (OD) values are measured at 490 nm with a 1420 multilabel counter VICTOR® from Wallac, Turku, Finland. All of the measured values are subtracted with that of the blank control wells without cells before further calculations. The efficacy data are expressed as a percentage normalized to the vehicle controls as calculated in the following formulae. Inhibitory potency (% of vehicle control)=[(OD490compound−OD490blank)/(OD490vehicle−OD490blank)]×100%. The concentration (IC50) of a test compound that inhibits 50% of the cellular activity is determined.
# [2] = test system: hepatocellular HEP G2 cancer cells; experiment: In vitro cytotoxicity MTS assay, hepatocellular HEP G2; type: cell-based, human; conditions: 72 hours
# Procedure: as §1
# [3] = test system: adriamycin-resistant MES-SA/Dx5 subline; experiment: In vitro cytotoxicity MTS assay, adriamycin-resistant MES-SA/Dx5; type: cell-based, human; conditions: 72 hours
# Procedure: as §1
# [4] = test system: lung A549 cancer cells; experiment: In vitro cytotoxicity MTS assay, lung A549; type: cell-based, human; conditions: 72 hours
# Procedure: as §1
# [5] = test system: breast MCF7 cancer cells; experiment: In vitro cytotoxicity MTS assay, breast MCF7; type: cell-based, human; conditions: 72 hours
# Procedure: as §1
# [6] = test system: nasopharyngeal HONE1 cancer cells; experiment: In vitro cytotoxicity MTS assay, nasopharyngeal HONE1; type: cell-based, human; conditions: 72 hours
# Procedure: as §1
# [7] = test system: prostate PC3 cancer cells; experiment: In vitro cytotoxicity MTS assay, prostate PC3; type: cell-based, human; conditions: 72 hours
# Procedure: as §1
# [8] = test system: gastric HR cancer cells; experiment: In vitro cytotoxicity MTS assay, gastric HR; type: cell-based, human; conditions: 72 hours
# Procedure: as §1
# [9] = test system: colorectal DLD1 cancer cells; experiment: In vitro cytotoxicity MTS assay, colorectal DLD1; type: cell-based, human; conditions: 72 hours
# Procedure: as §1
# [10] = test system: rat aorta endothelial cells; experiment: Rat aorta tube formation assay (angiogenesis inhibition); type: cell-based, Spraque-Dawley rats; design: key: Noninhibitors are indicated by the symbol (−), meaning that the extent of endothelial cell growth is essentially at the same level as that of the control; The most potent inhibitors receive a score of (+++++), indicating essentially no measurable endothelial cell growth; conditions: final conc. 0.3 μg/ml, 5 days
# Procedure: The procedures are modified from previous reports (Burbridge and West 2001; Bauer et al. 2000; Nicosai and Ottinetti 1990a) and described as follows. Male Spraque-Dawley rats of 6-8 weeks old are purchased from the National Laboratory Animal Breeding and Research Center (Taipei, Taiwan). The animals are anesthetized with urethane (2 g/kg, intraperitoneal) and the thoracic aortas are quickly harvested in a laminar flow hood. The aortas are rinsed with ice-cold normal saline with 10 μg/ml gentamicin and the attached fibroadipose tissues are removed using micro-dissection scissors. The aortas are cross-sectioned into rings of 1 mm in thickness. A mixture of Matrigel®, purchased from BD Biosciences, solution and the EBM-II medium, purchased from BioWhittaker Inc., (1:1) with 2% FBS, 0.25 mg/ml, amphotericin B and 10 μg/ml gentamicin is prepared and added at 100 μl to each well of a 48-well plate. The mixture is allowed to gel at 37° C. Aorta rings are then placed onto the gelled matrix and embedded in an additional 150 μl per well of the mixture solution and allowed to gel at 37° C. The aorta rings are then covered with 125 μl of the EGM-II medium and incubated overnight in humidified incubator with 5% CO2/95% air at 37° C. After removal of the EGM-II from the established aorta cultures, the compound-containing media are applied at 300 μl per well to the cultures and then incubated in 5% CO2/95% air at 37° C. for 5 days. The cultures are then subject to the 3-[4,5-dimethylthiazol-2-yl]-2,5 diphenyl-2H-tetrazolium bromide (MTT) or 3-(4,5-dimethylthiazol-2-yl)-5-(3-carbomethoxyphenyl)-2H-tetrazolium (MTS) assay and OD490 nm values measured. The testing compounds are dissolved in dimethyl sulfoxide (DMSO) and prepared in EBM-II media with at a final concentration of DMSO less than 0.1%.
# The capillary-like, tube structure of the outgrown rat aorta endothelial cells is easily visualized by MTT staining. The medium on top of the matrix is removed from the established aorta ring cultures. MTT solution of 5 mg/ml in saline is added to the cultures at 100 μl/well and the cultures are incubated in a CO2 incubator at 37° C. for 24 hr. The stained cultures are then examined under a microscope DMIRB from Leica and photos taken with a digital camera.
# Inhibition activity is also assessed in the following manner. The reductive reaction of MTS initiated by the viable cellular mitochondrial activity is used as a basis for the measurement of cell viability (Cory et al. 1991; Gieni et al. 1995). To the rat aorta ring cultures 300 μl of a solution containing 100 μg MTS and 1 μg, phenazine methosulfate is added per well and incubated in 5% CO2/95% air at 37° C. for 24 hr. During the incubation, MTS is converted to formazan product. At the end of incubation, the solution overlaying the gel is well-mixed and 100 μl aliquots are transferred into a 96-well plate for measurement of OD490 nm with a spectrophotometer VICTOR™-II from Wallac Oy.
# The compounds listed in Table 3 are screened for angiogenesis inhibition. The control compound, ASTA, is D-24851, N-[pyridin-4-yl]-[1-(4-chlorobenzyl)-indol-3-yl]-glyoxylic acid amide. Noninhibitors are indicated by the symbol (−), meaning that the extent of endothelial cell growth is essentially at the same level as that of the control.
# [11] = test system: gastric NUGC3 cancer cells; experiment: In vitro cytotoxicity MTS assay, gastric NUGC3; type: cell-based, human; conditions: 72 hours
# Procedure: as §1
# [12] = test system: uterus MES-SA cancer cells; experiment: In vitro cytotoxicity MTS assay, uterus MES-SA; type: cell-based, human; conditions: 72 hours
# Procedure: as §1
# [13] = test system: hepatocellular HA-22T cancer cells; experiment: In vitro cytotoxicity MTS assay, hepatocellular HA-22T; type: cell-based, human; conditions: 72 hours
# Procedure: as §1
Compound,IC50 [1],IC50 [2],IC50 [3],IC50 [4],IC50 [5],IC50 [6],IC50 [7],IC50 [8],IC50 [9],Inhibition Score [10],IC50 [11],IC50 [12],IC50 [13]
N#Cc1ccc(Cn2cc(C(=O)C(=O)Nc3ccc4ncccc4c3)c3ccccc32)cc1 [Compound 3],665 nM,383 nM,6090 nM,6400 nM,640 nM,174 nM,9630 nM,266 nM,665 nM,+++++,279 nM,4710 nM,510 nM
O=C(Nc1cc(-c2ccc(Cl)cc2)no1)C(=O)c1cn(Cc2ccc(Cl)cc2)c2ccccc12 [Compound 38],4080 nM,3460 nM,,,4260 nM,487 nM,,2980 nM,3720 nM,−,2010 nM,,2240 nM
Cc1cc(NC(=O)C(=O)c2cn(Cc3ccco3)c3ccccc23)sn1 [Compound 40],1170 nM,7720 nM,263 nM,746 nM,1160 nM,56 nM,398 nM,295 nM,981 nM,+++++,395 nM,235 nM,1260 nM
O=C(Nc1ccc2ncccc2c1)C(=O)c1cn(Cc2ccco2)c2ccccc12 [Compound 42],527 nM,3980 nM,,,928 nM,296 nM,,453 nM,799 nM,+++++,634 nM,,345 nM
Cc1cc(NC(=O)C(=O)c2cn(Cc3ccsc3)c3ccccc23)sn1 [Compound 45],2350 nM,1690 nM,406 nM,611 nM,611 nM,48 nM,824 nM,316 nM,593 nM,+++++,465 nM,306 nM,2400 nM
Cc1cc(NC(=O)C(=O)c2cn(Cc3ccno3)c3ccccc23)sn1 [Compound 54],5410 nM,> 10000 nM,333 nM,1670 nM,5020 nM,17 nM,725 nM,64 nM,397 nM,+++++,27 nM,268 nM,382 nM
Cc1cc(Cn2cc(C(=O)C(=O)Nc3ccc4ncccc4c3)c3ccccc32)on1 [Compound 59],300 nM,613 nM,,,678 nM,34 nM,,294 nM,658 nM,+++++,262 nM,,115 nM
CCc1cc(Cn2cc(C(=O)C(=O)Nc3cc(C)ns3)c3ccccc32)on1 [Compound 63],5070 nM,2470 nM,330 nM,1000 nM,747 nM,35 nM,636 nM,78 nM,705 nM,+++++,118 nM,312 nM,559 nM
Cc1cc(NC(=O)C(=O)c2cn(Cc3cc(C(C)C)no3)c3ccccc23)sn1 [Compound 65],710 nM,720 nM,,,700 nM,50 nM,,324 nM,609 nM,+++++,242 nM,,302 nM
O=C(Nc1ccc2ncccc2c1)C(=O)c1cn(Cc2cscn2)c2ccccc12 [Compound 77],595 nM,> 10000 nM,,,1320 nM,380 nM,,721 nM,1500 nM,+++++,458 nM,,469 nM

# From patent US6903104B2, “Indol-3-YL-2-oxoacetamide compounds and methods of use thereof” (National Health Research Institutes, priority 2001, dated 2005)
